# Test results reported in ChEMBL document CHEMBL1201862, “PubChem BioAssay data set” (2004).
# Calls of active or inactive are those of the source.
# Assays:
# HEK293 [1] = assay: HEK293T cell viability loss, resazurin readout – resazurin fluorescence, cytotoxicity control for NF-kB activator project, SAR follow-up (AID 493251); assay type: functional, cell-based; conditions: Homo sapiens
# [2] = alpha-synuclein stem-loop luciferase translation blockers – H4 neuroglioma cells, luminescence, confirmation (AID 1988); assay type: functional, cell-based
# [3] = luciferase reporter signal suppression in cells – H4 neuroglioma cells, luminescence, dose response (AID 1990); assay type: functional, cell-based
# Vero = assay: cells; assay type: functional; conditions: Chlorocebus sabaeus
# Jurkat [4] = assay: SAR Analysis of small molecule inhibitors of T-cell specific antigen receptor-induced NF-kB activation in a Jurkat cell line using a luminescence assay - Set 2. [Related pubchem assays (depositor defined):AID435003, AID435012, AID465]; assay type: functional, cell-based; conditions: Homo sapiens
# HEK293 [5] = assay: SAR Analysis of small molecule inhibitors of T-cell specific antigen receptor-induced NF-kB activation in a HEK-293T cell line using a luminescence assay - Set 2. [Related pubchem assays (depositor defined):AID435003, AID435012, AID489026]; assay type: functional, cell-based; conditions: Homo sapiens
# INS1 = assay: INS-1E survival protection against cytokine death – cell-based, luminescence, retest, dose response (AID 449756); assay type: functional; conditions: Rattus norvegicus;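 note: cell death triggered by IL-1 beta plus TNF-alpha plus IFN-gamma mixture; protective hits raise ATP signal compared with cytokine alone wells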
# [6] = Luminescence Cell-Based Dose Response HTS to Identify Inhibitors of 5'UTR Stem-Loop Driven Prion Protein mRNA Translation in H4 Neuroglioblastoma Cells. [Related pubchem assays: 1827 (Project Summary), 1813 (Primary HTS)]; assay type: functional
# CAAX prenyl protease 2 = CAAX prenyl protease 2 (Saccharomyces cerevisiae S288c, UniProt Q03530); assay: inhibition of Rce1p peptide cleavage – biochemical, plate reader, dry powder retest, dose response (AID 588851)
# [7] = toxicity toward cultured mammalian cells – cell-based, plate reader, cherry-pick samples, cytotoxicity control, dose response (AID 504397); assay type: functional
# [8] = biological target: Glycogen synthase kinase-3 alpha (Homo sapiens, UniProt P49840); assay: Inhibition of Human GSK-3 alpha Activity Measured in Biochemical System Using Microfluidics - 2063-06_Inhibitor_Dose_DryPowder_Activity. [Related pubchem assays (depositor defined):AID2709]
# Sequence of Glycogen synthase kinase-3 alpha (P49840 whole entry): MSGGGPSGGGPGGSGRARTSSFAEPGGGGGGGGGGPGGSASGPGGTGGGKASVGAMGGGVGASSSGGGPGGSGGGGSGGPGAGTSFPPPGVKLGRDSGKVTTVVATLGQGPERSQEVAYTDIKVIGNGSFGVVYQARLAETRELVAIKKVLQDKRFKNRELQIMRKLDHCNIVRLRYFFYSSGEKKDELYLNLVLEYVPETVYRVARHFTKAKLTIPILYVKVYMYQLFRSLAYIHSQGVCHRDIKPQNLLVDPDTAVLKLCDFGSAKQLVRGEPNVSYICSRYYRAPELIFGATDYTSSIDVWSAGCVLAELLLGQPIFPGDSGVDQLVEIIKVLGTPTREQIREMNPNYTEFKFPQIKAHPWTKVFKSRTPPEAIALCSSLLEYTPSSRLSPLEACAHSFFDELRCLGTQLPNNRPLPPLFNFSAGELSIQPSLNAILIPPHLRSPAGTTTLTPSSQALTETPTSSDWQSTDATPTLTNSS
# [9] = biological target: Glycogen synthase kinase-3 beta (Homo sapiens, UniProt P49841); assay: Inhibition of Human GSK-3 beta Activity Measured in Biochemical System Using Microfluidics - 2063-05_Inhibitor_Dose_DryPowder_Activity. [Related pubchem assays (depositor defined):AID2709]
# Sequence of Glycogen synthase kinase-3 beta (P49841 whole entry): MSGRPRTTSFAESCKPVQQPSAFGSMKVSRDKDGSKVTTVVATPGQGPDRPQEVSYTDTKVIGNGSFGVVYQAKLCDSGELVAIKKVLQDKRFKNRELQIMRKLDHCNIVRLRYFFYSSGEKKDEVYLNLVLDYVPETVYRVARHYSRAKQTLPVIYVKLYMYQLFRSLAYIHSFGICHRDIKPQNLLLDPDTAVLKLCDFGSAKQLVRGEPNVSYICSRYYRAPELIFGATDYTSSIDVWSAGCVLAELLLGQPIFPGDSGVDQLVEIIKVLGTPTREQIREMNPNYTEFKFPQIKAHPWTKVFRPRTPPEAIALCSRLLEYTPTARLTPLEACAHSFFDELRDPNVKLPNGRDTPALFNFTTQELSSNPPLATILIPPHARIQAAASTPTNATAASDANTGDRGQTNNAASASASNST
# Jurkat [10] = assay: blockers of NF-kB activation in T cells – Jurkat, luciferase reporter, luminescence, B- and T-cell, dose response (AID 489004); assay type: functional, cell-based; conditions: Homo sapiens;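 note: NF-kB luciferase reporter Jurkat cells stimulated with PMA plus ionomycin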
# [11] = HEK-293T viability loss, compound-treated – cell-based, uHTS hits, cytotoxicity control for B/T-cell NF-kB inhibitor project, dose response (AID 489019); assay type: functional;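 note: IC50 reflects cytotoxicity as loss of cell viability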
# [12] = biological target: Multidrug resistance protein CDR1 (Candida albicans, UniProt P43071); assay: inhibition of Nile Red efflux via Candida CDR1 – S. cerevisiae AD1-8u, singleplex, Cherry Pick1 hits, dose response (AID 588606); assay type: functional
# Sequence of Multidrug resistance protein CDR1 (P43071 whole entry, looked up): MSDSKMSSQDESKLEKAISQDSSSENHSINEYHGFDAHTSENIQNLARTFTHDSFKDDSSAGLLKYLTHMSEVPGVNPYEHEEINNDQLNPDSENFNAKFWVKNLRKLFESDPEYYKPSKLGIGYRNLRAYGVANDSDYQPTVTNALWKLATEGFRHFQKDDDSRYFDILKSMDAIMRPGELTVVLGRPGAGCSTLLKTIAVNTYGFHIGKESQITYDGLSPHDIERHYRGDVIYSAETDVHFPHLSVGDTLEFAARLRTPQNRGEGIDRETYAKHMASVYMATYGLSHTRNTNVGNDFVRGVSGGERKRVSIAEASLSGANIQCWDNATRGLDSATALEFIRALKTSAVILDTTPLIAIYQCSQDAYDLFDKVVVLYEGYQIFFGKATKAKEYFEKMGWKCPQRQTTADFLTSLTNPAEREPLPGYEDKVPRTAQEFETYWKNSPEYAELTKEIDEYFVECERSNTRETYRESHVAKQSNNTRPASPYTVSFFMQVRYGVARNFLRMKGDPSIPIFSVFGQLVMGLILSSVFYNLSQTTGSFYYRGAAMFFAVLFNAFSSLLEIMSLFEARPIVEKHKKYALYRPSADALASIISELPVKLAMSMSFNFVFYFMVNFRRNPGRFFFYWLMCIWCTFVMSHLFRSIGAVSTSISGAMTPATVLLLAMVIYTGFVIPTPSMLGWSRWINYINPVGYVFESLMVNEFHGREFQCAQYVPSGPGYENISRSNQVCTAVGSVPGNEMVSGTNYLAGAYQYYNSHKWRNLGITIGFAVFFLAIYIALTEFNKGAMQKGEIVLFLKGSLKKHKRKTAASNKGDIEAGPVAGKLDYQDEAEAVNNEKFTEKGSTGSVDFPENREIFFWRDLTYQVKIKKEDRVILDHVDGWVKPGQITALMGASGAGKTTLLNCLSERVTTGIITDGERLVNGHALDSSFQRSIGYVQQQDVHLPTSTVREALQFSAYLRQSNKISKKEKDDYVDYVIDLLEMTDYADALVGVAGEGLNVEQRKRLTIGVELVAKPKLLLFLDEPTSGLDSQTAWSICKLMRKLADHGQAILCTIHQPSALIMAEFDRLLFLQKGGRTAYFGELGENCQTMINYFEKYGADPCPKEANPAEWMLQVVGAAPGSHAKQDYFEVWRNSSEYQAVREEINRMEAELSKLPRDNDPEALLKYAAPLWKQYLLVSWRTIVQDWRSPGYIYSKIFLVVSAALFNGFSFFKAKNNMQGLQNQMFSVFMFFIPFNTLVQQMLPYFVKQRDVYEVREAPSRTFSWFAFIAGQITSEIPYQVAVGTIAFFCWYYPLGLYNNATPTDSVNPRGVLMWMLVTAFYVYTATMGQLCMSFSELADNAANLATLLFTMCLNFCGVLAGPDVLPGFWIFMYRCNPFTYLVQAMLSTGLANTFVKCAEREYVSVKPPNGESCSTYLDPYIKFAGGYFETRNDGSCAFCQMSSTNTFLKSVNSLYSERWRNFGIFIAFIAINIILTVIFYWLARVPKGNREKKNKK
# [13] = biological target: Benomyl/methotrexate resistance protein (Candida albicans, UniProt P28873); assay: Candida albicans Mdr1 pump blockade titration – singleplex, Cherry Pick2 set, dose response (AID 623992); assay type: functional; conditions: read-out: EC50_MICROM
# [14] = biological target: NAD-dependent protein deacylase sirtuin-5, mitochondrial (Homo sapiens, UniProt Q9NXA8); assay: sirtuin-5 deacylation blockers, concentration series – biochemical, fluorescence imaging, cherry-pick, set 5, dose response (AID 720591);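 note: desuccinylation of succinyl peptide AMC substrate read as fluorescence after trypsin release; potency of inhibitors that lower fluorescence and may act on trypsin instead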
# Sequence of NAD-dependent protein deacylase sirtuin-5, mitochondrial (Q9NXA8 whole entry): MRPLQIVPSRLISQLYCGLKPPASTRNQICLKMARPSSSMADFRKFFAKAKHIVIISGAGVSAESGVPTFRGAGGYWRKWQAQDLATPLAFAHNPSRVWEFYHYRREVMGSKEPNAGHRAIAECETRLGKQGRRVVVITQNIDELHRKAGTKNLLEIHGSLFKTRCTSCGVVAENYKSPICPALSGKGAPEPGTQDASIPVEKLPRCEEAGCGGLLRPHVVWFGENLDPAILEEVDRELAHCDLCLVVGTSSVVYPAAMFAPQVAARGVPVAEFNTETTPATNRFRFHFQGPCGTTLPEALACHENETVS
# [15] = restored growth of temperature-sensitive Burl-1 yeast – whole organism, S. cerevisiae, Burl-1 ts mutant, luminescence, counter-screen for SUMOylation pathway inhibitor project, dose response (AID 463199); assay type: functional
# [16] = biological target: T1, Carboxy-terminal domain RNA polymerase II polypeptide A small phosphatase 1 (Homo sapiens, UniProt Q9GZU7); assay: CTDSP1 inhibitors, concentration-response, biochemical, absorbance readout, ultra-high-throughput screen actives (AID 540297); assay type: functional
# T1 sequence (Q9GZU7 whole entry): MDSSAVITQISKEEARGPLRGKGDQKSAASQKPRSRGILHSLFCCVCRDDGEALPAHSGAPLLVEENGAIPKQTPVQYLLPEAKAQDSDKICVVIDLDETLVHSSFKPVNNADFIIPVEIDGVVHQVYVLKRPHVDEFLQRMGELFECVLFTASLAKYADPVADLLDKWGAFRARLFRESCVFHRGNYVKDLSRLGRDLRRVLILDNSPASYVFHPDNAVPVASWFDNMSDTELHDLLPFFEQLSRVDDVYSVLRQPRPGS
# [17] = biological target: RNA-editing ligase 1, mitochondrial (Trypanosoma brucei brucei, UniProt P86926); assay: inhibition of trypanosome RNA editing ligase – biochemical, fluorescence, Trypanosoma brucei, dose response (AID 1117295); assay type: functional
# Sequence of RNA-editing ligase 1, mitochondrial (P86926 whole entry): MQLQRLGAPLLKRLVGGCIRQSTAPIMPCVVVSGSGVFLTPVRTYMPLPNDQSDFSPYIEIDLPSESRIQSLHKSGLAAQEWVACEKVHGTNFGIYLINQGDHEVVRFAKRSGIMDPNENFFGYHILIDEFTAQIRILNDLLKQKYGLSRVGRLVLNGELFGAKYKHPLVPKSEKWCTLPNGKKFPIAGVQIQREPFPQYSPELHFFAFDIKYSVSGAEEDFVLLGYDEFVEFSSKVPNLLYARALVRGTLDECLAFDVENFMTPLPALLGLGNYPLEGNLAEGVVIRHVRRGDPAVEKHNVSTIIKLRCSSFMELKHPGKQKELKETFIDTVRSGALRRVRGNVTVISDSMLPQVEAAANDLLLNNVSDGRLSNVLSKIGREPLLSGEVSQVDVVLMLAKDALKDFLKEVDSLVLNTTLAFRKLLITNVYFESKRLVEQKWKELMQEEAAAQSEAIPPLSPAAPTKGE
# [18] = biological target: T2, Fructose-bisphosphate aldolase (Mycobacterium tuberculosis, UniProt P9WQA3); assay: Fluorescence-based biochemical high throughput dose response assay for inhibitors of the fructose-bisphosphate aldolase (FBA) of M. tuberculosis.; assay type: functional
# T2 sequence (P9WQA3 whole entry): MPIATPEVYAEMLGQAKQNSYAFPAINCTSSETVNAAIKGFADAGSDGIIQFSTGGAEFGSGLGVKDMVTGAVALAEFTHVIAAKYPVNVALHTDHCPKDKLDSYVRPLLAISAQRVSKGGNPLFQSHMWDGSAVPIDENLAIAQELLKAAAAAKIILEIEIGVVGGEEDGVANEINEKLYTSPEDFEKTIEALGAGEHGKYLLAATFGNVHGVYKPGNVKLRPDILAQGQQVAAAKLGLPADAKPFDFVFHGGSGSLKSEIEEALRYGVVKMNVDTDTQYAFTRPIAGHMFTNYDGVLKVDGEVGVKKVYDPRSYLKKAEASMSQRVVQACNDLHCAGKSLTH
# [19] = biological target: T3, Corticotropin-releasing factor receptor 2/Corticotropin-releasing factor-binding protein (Homo sapiens, UniProt P24387+Q13324); assay: activators of CRF receptor 2 with binding protein – uHTS hits, confirmation (AID 602473); assay type: functional; conditions: read-out: EC50_Mean
# T3 sequence (Q13324 whole entry): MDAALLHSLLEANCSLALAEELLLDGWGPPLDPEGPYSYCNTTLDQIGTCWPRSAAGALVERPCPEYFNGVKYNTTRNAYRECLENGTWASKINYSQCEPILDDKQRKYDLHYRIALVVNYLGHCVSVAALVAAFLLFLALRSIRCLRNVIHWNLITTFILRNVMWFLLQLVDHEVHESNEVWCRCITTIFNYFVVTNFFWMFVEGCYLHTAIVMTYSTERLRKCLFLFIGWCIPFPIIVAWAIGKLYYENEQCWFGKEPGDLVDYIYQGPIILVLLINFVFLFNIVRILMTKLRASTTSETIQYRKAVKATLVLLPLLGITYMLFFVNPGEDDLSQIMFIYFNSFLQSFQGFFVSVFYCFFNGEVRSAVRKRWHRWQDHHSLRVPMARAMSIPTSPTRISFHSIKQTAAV
# T3 sequence (P24387 whole entry): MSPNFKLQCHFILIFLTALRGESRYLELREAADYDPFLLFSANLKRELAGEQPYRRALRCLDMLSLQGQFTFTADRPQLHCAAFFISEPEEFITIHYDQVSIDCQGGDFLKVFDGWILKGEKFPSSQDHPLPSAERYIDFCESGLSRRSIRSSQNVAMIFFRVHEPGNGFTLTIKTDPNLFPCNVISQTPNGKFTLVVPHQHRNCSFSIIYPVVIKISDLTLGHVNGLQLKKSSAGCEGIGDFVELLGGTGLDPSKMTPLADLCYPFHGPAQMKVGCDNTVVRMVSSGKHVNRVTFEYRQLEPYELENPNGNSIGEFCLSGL
# Keap1/Nrf2 = Keap1/Nrf2 (Homo sapiens, UniProt Q14145); assay: disruptors of Keap1 binding to Nrf2 peptide – biochemical, fluorescence polarization, cherry-picked samples, dose response (AID 588683)
# [20] = biological target: Dual specificity protein kinase CLK1 (Homo sapiens, UniProt P49759); assay: inhibition of human CLK1 activity – biochemical, cherry-picked samples, selectivity assay for Dyrk1A inhibitor project, dose response (AID 588811)
# Sequence of Dual specificity protein kinase CLK1 (P49759 whole entry): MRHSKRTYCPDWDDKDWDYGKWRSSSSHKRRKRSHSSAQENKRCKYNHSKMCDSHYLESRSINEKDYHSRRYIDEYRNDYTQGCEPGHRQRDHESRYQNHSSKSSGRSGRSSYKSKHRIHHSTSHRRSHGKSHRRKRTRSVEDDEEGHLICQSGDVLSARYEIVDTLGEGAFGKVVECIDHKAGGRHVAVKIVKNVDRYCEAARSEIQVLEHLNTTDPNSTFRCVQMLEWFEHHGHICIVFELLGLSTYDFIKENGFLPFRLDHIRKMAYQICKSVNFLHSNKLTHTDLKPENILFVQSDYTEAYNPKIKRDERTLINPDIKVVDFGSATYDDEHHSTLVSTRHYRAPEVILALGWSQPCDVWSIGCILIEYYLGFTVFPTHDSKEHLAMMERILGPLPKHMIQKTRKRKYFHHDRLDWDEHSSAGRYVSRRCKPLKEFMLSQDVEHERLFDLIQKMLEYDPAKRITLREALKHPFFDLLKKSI
# [21] = biological target: Dual specificity protein phosphatase 6 (Rattus norvegicus, UniProt Q64346); assay type: functional;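 note: confirmatory in vitro dose-response testing of MKP-3 inhibition; recombinant His-tagged MKP-3 made in E. coli BL21 with OMFP substrate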
# Sequence of Dual specificity protein phosphatase 6 (Q64346 whole entry): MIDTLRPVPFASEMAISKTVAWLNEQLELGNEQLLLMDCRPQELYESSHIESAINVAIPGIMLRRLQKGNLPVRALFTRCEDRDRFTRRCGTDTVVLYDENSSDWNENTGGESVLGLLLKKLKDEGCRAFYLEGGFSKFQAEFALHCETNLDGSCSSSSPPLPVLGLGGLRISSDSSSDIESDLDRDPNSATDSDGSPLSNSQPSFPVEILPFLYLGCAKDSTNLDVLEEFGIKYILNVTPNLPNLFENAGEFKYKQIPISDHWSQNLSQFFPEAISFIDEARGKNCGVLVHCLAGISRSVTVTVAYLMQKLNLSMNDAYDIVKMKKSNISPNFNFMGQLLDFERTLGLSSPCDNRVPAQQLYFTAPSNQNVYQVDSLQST
# [22] = biological target: Dual specificity protein phosphatase 3 (Homo sapiens, UniProt P51452); assay: SAR VHR1 Fluorescent Assay for In Vitro dose response studies Set 2. [Related pubchem assays (depositor defined):AID1654, AID1661, AID1878]; assay type: functional
# Sequence of Dual specificity protein phosphatase 3 (P51452 whole entry): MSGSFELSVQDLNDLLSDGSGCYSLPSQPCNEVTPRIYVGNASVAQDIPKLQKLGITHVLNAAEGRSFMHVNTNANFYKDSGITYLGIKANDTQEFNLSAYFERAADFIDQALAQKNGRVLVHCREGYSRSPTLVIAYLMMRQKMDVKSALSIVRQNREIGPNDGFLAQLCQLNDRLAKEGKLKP
# Hexokinase-1 = Hexokinase-1 (Homo sapiens, UniProt P19367); assay: hexokinase 1 activity inhibitors, potency – biochemical, set 2, resazurin fluorescence coupled readout, selectivity assay for HKDC1 inhibitor project, SAR follow-up (AID 588356); assay type: functional
# Hexokinase HKDC1 = Hexokinase HKDC1 (Homo sapiens, UniProt Q2TB90); assay: analog inhibition of human HKDC1 activity – biochemical, set 2, SAR follow-up (AID 588355); assay type: functional
# [23] = biological target: ATP-dependent molecular chaperone HSP82 (Candida albicans (strain WO-1) (Yeast), UniProt C4YTQ8); assay: steroid-induced GRE reporter decrease in yeast – S. cerevisiae, luminescence, Hsp90 inhibitor project, dose response (AID 2400); assay type: functional, cell-based;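 note: beta-galactosidase luminescence from glucocorticoid response element reporter as proxy for Hsp90 function; inhibitor potency where signal loss means Hsp90 inhibition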
# Sequence of ATP-dependent molecular chaperone HSP82 (C4YTQ8 whole entry): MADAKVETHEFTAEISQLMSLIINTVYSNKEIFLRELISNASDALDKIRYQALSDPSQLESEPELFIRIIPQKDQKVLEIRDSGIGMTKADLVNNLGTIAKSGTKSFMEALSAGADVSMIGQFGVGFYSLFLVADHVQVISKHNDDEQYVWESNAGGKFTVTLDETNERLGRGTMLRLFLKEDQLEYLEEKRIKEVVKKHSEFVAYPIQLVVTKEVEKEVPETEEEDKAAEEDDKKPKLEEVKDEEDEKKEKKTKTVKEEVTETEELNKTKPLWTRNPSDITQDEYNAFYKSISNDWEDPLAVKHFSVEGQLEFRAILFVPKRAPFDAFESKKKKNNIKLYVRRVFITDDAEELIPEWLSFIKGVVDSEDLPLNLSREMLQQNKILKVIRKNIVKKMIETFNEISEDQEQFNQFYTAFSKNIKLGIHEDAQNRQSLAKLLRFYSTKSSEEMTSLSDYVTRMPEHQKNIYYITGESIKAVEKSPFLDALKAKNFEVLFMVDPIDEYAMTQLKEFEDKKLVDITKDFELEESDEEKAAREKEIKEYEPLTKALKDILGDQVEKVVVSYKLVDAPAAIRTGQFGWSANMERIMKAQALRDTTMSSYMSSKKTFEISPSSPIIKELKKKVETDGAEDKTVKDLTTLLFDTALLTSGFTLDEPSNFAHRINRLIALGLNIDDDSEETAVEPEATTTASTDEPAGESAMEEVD
# [24] = fluconazole-exposed Candida albicans growth modulators – fluorescence, retest, confirmation (AID 2467); assay type: functional, cell-based
# [25] = biological target: Serine/threonine-protein phosphatase (Candida dubliniensis (strain CD36 / CBS 7987 / NCPF 3949 / NRRLY-17841) (Yeast), UniProt B9W6M3); assay: blockers of CaCl2-induced CDRE-lacZ signaling – S. cerevisiae, luminescence, secondary, dose response (AID 2388); assay type: functional, cell-based;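 note: yeast reporter cells carrying a calcineurin-responsive lacZ construct stimulated with calcium chloride; luminescent beta-galactosidase reporter signal in whole cells rather than isolated phosphatase activity; potency for inhibition where a drop in reporter signal means calcineurin blockade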
# [26] = NIH-3T3 fibroblast cytotoxicity, dose response, cytotoxicity control, cell-based, fluorescence, Alamar Blue, secondary assay (AID 2327); assay type: functional;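 note: NIH-3T3 mouse fibroblasts cultured with fluconazole at 8 µg/mL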
smiles,measurement,setting,value
CCN1CCN(c2c(Cl)cccc2NC(=O)c2ccc([N+](=O)[O-])o2)CC1,IC50,HEK293 [1],18.7 µM (active)
same,EC50,[2],11.1 µM (active)
same,EC50,[3],10.6 µM (active)
same,CC50,Vero,23.4 µM (active)
same,IC50,Jurkat [4],10.6 µM (active)
same,IC50,HEK293 [5],17.9 µM (active)
same,AC50,INS1,3.68 µM (active)
same,EC50,[6],> 120 µM (not active)
Cc1cc(N2CCN(C(c3ccccc3)c3ccccc3)CC2)n2ncnc2n1,AC50,CAAX prenyl protease 2,7.39 µM (active)
same,AC50,[7],159 µM (active)
Nc1nc(Nc2cccc(F)c2)nc(NCCO)c1[N+](=O)[O-],AC50,[8],953 nM (active)
same,AC50,[9],228 nM (active)
Cc1cc(Cl)c(S(=O)(=O)N2CCCCCC2)cc1OCC(=O)NC1CCCCC1,IC50,Jurkat [10],> 80 µM (inactive)
same,IC50,[11],> 80 µM (inactive)
CCO[C@@H]1OC(C(=O)Nc2ccccc2)=C[C@H](c2ccc(Br)cc2)[C@H]1CCCO,EC50,[12],11.7 µM (active)
same,EC50,[13],25.2 µM (active)
CCCSc1nnc(NC(=O)CSc2sc3c(O)cc(O)nc3c2C#N)s1,AC50,[14],> 30 µM (inactive)
same,AC50,[15],106 µM (active)
same,IC50,[16],3.46 µM (active)
same,IC50,[17],50.7 µM (inactive)
same,IC50,[18],> 9.99 µM (inactive)
CCN(CC)S(=O)(=O)c1ccc(C(=O)OCCN2C(=O)c3cccc4c(N5CCOCC5)ccc(c34)C2=O)cc1,EC50,[19],6.47 µM (active)
same,AC50,Keap1/Nrf2,13.9 µM (active)
CCCNc1ncnc2ccc(-c3ccc4c(c3)OCO4)cc12,AC50,[20],3.14 nM (active)
COc1ccc(C(=O)NC2CCSc3ccccc32)cc1S(N)(=O)=O (configuration not stated),IC50,[21],> 100 µM (inactive)
same,IC50,[22],> 100 µM (inactive)
O=C(O)C(c1ccccc1)N1C(=O)c2ccccc2C1=O (configuration not stated),IC50,Hexokinase-1,> 80 µM (inactive)
same,IC50,Hexokinase HKDC1,> 80 µM (inactive)
O=[N+]([O-])c1cc(Cl)c2cccnc2c1O,EC50,[23],3.67 µM (active)
same,EC50,[24],84 nM (active)
same,EC50,[25],> 180 µM (inactive)
same,EC50,[26],11.1 µM (active)
